Measurements reported in ChEMBL document CHEMBL6109155, “Discovery of Phenylacylpiperidine as Novel sEH Inhibitors through Scaffold Hopping of Natural Stilbene” (J Med Chem, 2025).
Active and inactive are the calls of the source. The calls are words filed in the database; no cut-off is given here.

What was measured:
[1] = tested on: Mus musculus; assay: Anti-inflammatory activity in BALB/c mouse model of carrageenan-induced paw edema assessed as inhibition of paw swelling at 20 mg/kg, po measured for 2 hrs relative to control; type: functional
[2] = tested on: Mus musculus; assay: Anti-inflammatory activity in BALB/c mouse model of carrageenan-induced paw edema assessed as inhibition of paw swelling at 20 mg/kg, po measured for 6 hrs relative to control; type: functional
[3] = tested on: Mus musculus; assay: Anti-inflammatory activity in BALB/c mouse model of carrageenan-induced paw edema assessed as inhibition of paw swelling at 1 mg/kg, po measured after 6 hrs relative to control; type: functional
[4] = tested on: Mus musculus; assay: Anti-inflammatory activity in BALB/c mouse model of carrageenan-induced paw edema assessed as increase in ratio of 11,12-EET to DHET plasma levels at 10 mg/kg, po measured after 6 hrs relative to control; type: functional
[5] = tested on: Mus musculus; assay: Anti-inflammatory activity in BALB/c mouse model of carrageenan-induced paw edema assessed as increase in plasma 8,9-EET levels at 10 mg/kg, po measured after 6 hrs relative to control; type: functional
[6] = tested on: Mus musculus; assay: Anti-inflammatory activity in BALB/c mouse model of carrageenan-induced paw edema assessed as increase in plasma 11,12-EET levels at 10 mg/kg, po measured after 6 hrs relative to control; type: functional
[7] = tested on: Mus musculus; assay: Anti-inflammatory activity in BALB/c mouse model of carrageenan-induced paw edema assessed as decrease in plasma 8,9-DHET levels at 10 mg/kg, po measured after 6 hrs relative to control; type: functional; set-up: scale not given: the % may be the effect or the level left
[8] = tested on: Mus musculus; assay: Anti-inflammatory activity in BALB/c mouse model of carrageenan-induced paw edema assessed as decrease in plasma 14,15-DHET levels at 10 mg/kg, po measured after 6 hrs relative to control; type: functional; set-up: scale not given: the % may be the effect or the level left
[9] = tested on: Rattus norvegicus; assay: Anti-inflammatory activity in Sprague-Dawley rat model of CFA-induced rheumatoid arthritis assessed as improvement in food intake at 10 mg/kg, po administered daily measured for 19 days; type: functional, organism-based; conditions: time 19.0 day
[10] = tested on: Rattus norvegicus; assay: Anti-inflammatory activity in Sprague-Dawley rat model of CFA-induced rheumatoid arthritis assessed as […] in new blood vessel formation in synovial tissue at 10 mg/kg, po administered daily measured after 19 days by H and E staining based analysis; type: functional, organism-based; conditions: time 19.0 day
[11] = tested on: Rattus norvegicus; assay: Anti-inflammatory activity in Sprague-Dawley rat model of CFA-induced rheumatoid arthritis assessed as BS/BV value at 10 mg/kg, po administered daily measured after 19 days by micro-CT analysis (reference value: 17.147 %); type: functional; conditions: time 19 day
[12] = tested on: Rattus norvegicus; assay: Anti-inflammatory activity in Sprague-Dawley rat model of CFA-induced rheumatoid arthritis assessed as BV/TV value at 10 mg/kg, po administered daily measured after 19 days by micro-CT analysis (reference value: 40.047 %); type: functional; conditions: time 19 day
[13] = tested on: Rattus norvegicus; assay: Anti-inflammatory activity in Sprague-Dawley rat model of CFA-induced rheumatoid arthritis assessed as TV value at 10 mg/kg, po administered daily measured after 19 days by micro-CT analysis (reference value: 92.617 mm3); type: functional; conditions: time 19 day
[14] = tested on: Rattus norvegicus; assay: Anti-inflammatory activity in Sprague-Dawley rat model of CFA-induced rheumatoid arthritis assessed as BS value at 10 mg/kg, po administered daily measured after 19 days by micro-CT analysis (reference value: 636.014 mm2); type: functional; conditions: time 19 day
[15] = tested on: Rattus norvegicus; assay: Anti-inflammatory activity in Sprague-Dawley rat model of CFA-induced rheumatoid arthritis assessed as increase in ratio of plasma 11,12-EET to DHET levels at 10 mg/kg, po administered daily measured after 19 days relative to control; type: functional; conditions: time 19 day
[16] = tested on: Mus musculus; assay: Anti-inflammatory activity in CD-1 mouse model of cerulein-induced acute pancreatitis assessed as increase in ratio of plasma 8,9-EET/DHET level at 10 mg/kg, ip drug administered at 30 mins and 2.5 hrs post-first cerulein injection and measured after 6 hrs post-first cerulein injection (reference value: 69.8 to 77.3 %); type: functional; conditions: time 3.5-5.5 hrs
[17] = In vivo inhibition of pancreatic sEH in CD-1 mouse model of cerulein-induced acute pancreatitis 10 mg/kg, ip drug administered at 30 mins and 2.5 hrs post-first cerulein injection and measured after 6 hrs post-first cerulein injection; type: functional; conditions: time 3.5-5.5 hrs
[18] = molecular target: T1, Cytochrome P450 1A2 (Homo sapiens, UniProt P05177); assay: Inhibition of CYP1A2 in human liver microsomes preincubated for 10 mins followed by NADPH addition measured after 3.5 mins by LC-MS/MS analysis; type: ADME, Microsome
T1 sequence (P05177 whole entry): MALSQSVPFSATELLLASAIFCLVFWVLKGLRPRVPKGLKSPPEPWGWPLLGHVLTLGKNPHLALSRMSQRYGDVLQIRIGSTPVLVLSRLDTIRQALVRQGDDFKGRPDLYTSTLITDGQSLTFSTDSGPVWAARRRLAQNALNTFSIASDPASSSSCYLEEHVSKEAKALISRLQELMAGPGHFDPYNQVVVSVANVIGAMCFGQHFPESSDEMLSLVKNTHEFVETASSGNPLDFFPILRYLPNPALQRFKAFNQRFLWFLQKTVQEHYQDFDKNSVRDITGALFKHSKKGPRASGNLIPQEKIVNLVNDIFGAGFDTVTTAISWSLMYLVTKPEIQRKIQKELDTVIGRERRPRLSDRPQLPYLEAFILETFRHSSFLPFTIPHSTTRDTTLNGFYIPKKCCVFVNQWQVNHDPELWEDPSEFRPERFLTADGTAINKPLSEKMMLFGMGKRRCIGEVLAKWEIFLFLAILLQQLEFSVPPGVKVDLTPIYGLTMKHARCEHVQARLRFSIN

[19] = molecular target: Cytochrome P450 2C9 (Homo sapiens, UniProt P11712); assay: Inhibition of CYP2C9 in human liver microsomes preincubated for 10 mins followed by NADPH addition measured after 3.5 mins by LC-MS/MS analysis; type: ADME, Microsome
[20] = molecular target: Cytochrome P450 2C19 (Homo sapiens, UniProt P33261); assay: Inhibition of CYP2C19 in human liver microsomes preincubated for 10 mins followed by NADPH addition measured after 3.5 mins by LC-MS/MS analysis; type: ADME, Microsome
[21] = molecular target: Cytochrome P450 3A4 (Homo sapiens, UniProt P08684); assay: Inhibition of CYP3A4 in human liver microsomes preincubated for 10 mins followed by NADPH addition measured after 3.5 mins by LC-MS/MS analysis; type: ADME, Microsome
[22] = Cmax in plasma of C57BL/6J mouse at 20 mg/kg, po measured for 24 hrs; type: ADME, organism-based
[23] = Ratio of Cmax in brain to plasma in C57BL/6J mouse at 20 mg/kg, po measured for 24 hrs; type: ADME, organism-based; conditions: brain and plasma
[24] = AUC (0 to 24 hrs) in kidney of C57BL/6J mouse at 20 mg/kg, po measured for 24 hrs; type: ADME, organism-based
[25] = Tmax in Sprague-Dawley rat at 20 mg/kg, po measured for 24 hrs; type: ADME, organism-based; conditions: in vivo
[26] = Cmax in Sprague-Dawley rat at 20 mg/kg, po measured for 24 hrs; type: ADME, organism-based; conditions: in vivo
[27] = Volume of distribution in Sprague-Dawley rat at 20 mg/kg, po measured for 24 hrs; type: ADME, organism-based; conditions: in vivo
[28] = Half life in Sprague-Dawley rat at 5 mg/kg, iv measured for 24 hrs; type: ADME, organism-based; conditions: in vivo
[29] = Tmax in Sprague-Dawley rat at 5 mg/kg, iv measured for 24 hrs; type: ADME, organism-based; conditions: in vivo

Chain of Cytochrome P450 3A4 (P08684 whole entry): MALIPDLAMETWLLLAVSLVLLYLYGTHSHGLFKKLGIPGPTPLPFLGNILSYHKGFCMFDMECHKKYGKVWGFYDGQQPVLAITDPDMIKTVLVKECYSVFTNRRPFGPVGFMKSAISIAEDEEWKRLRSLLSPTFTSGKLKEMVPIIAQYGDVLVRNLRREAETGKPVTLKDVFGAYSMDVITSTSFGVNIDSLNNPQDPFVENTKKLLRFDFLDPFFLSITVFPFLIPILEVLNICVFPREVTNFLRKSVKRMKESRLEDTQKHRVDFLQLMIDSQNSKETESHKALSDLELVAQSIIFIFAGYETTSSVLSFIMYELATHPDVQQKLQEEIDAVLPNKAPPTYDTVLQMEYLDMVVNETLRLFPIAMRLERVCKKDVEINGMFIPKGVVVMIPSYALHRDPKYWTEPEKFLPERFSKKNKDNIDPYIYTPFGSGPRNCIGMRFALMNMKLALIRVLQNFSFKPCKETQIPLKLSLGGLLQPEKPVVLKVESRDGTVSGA
Chain of Cytochrome P450 2C9 (P11712 whole entry): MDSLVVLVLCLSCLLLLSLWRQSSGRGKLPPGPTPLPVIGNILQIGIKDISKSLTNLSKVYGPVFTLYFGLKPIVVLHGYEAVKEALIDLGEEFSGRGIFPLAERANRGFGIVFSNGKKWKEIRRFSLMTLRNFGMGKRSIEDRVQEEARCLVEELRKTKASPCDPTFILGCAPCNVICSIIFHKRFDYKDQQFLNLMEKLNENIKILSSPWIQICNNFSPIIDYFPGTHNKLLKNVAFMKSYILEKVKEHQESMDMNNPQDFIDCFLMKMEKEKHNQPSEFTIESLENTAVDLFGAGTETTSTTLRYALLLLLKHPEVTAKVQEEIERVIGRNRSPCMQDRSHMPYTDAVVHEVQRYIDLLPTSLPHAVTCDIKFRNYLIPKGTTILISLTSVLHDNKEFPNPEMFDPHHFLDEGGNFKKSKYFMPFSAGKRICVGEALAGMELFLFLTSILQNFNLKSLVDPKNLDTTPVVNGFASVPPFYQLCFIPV
Chain of Cytochrome P450 2C19 (P33261 whole entry): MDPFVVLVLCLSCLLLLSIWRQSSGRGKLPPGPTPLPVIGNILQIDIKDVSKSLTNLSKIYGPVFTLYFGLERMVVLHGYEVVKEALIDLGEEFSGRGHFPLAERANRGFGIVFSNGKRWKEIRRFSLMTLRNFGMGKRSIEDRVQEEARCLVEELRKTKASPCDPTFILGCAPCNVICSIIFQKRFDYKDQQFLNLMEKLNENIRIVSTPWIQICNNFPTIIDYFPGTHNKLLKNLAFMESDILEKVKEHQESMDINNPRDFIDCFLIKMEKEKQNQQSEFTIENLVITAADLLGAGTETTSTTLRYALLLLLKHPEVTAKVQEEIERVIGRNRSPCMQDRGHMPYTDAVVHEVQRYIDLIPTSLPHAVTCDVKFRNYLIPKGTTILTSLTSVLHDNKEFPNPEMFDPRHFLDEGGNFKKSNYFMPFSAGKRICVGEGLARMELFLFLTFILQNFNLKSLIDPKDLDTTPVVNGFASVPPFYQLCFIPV

Compound: COc1cc(CC(=O)N2CCC(NC(=O)NCc3ccc(OC(F)(F)F)cc3)CC2)cc(OC)c1
- inhibition in vivo at 20 mg/kg [1]: 44.6%
- inhibition in vivo at 20 mg/kg [2]: 38.1%
- inhibition in vivo at 1 mg/kg [3]: 22%
- Activity [4]: 362%
- Activity [5]: 28.7%
- Activity [6]: 85.4%
- Activity [7]: 70.3%
- Activity [8]: 69.8%
- Activity [9]: Active
- Activity [10]: Active; Few Newly Formed Blood Vessels Was Observed
- Activity [11]: 11.923%
- Activity [12]: 62.73%
- Activity [13]: 57.762 mm3
- Activity [14]: 432.009 mm2
- Activity [15]: 111%
- Activity [16]: 558%
- inhibition in vivo at 10 mg/kg [17]: 44.7%
- IC50 [18]: > 50 µM
- IC50 [19]: 48.2 µM
- IC50 [20]: 9.5 µM
- IC50 [21]: 22.9 µM
- Cmax [22]: 482 ng/mL
- Kp at 24 h [23]: 0.06
- AUC(0-t) at 24 h [24]: 17200 ng·h/mL
- Tmax [25]: 30 min
- Cmax [26]: 359 ng/mL
- Vd [27]: 74.6 L/kg
- half-life [28]: 25.2 min
- Tmax [29]: 4.8 min
